Literature values in patent publication US20190156929A1, “METHODS OF IMPROVING PATIENT COMPLIANCE TO TREAT CONTRAST-INDUCED INJURY” (Saghmos Therapeutics, Inc., priority 2017, published 2019).

Tested on: contrast-induced nephropathy in patients undergoing coronary angiography/angioplasty
Details: four published Phase 2 trials; compared with isotonic saline; patients e.g. with high serum creatinine levels

## COc1ccc(CN2CCNCC2)c(OC)c1OC [Trimetazidine]
  reduction of the risk of contrast-induced nephropathy (CIN): more effective than isotonic saline in reducing the risk of contrast-induced nephropathy (CIN)
